Where two headings read alike, the source gives them in different places.
Tests used:
HIV-1 M184V variant = type: cell-based; conditions: HOS cells, single-cycle infectivity assay
MT-4 cells = conditions: previously reported; cited from earlier work
[1] = tested on: NRTI-resistant HIV-1, including the M184V variant; conditions: infected MT-4 cells, Ohrui 2006, Ohuri 2007, Kawamoto 2008, cited from earlier work
[2] = tested on: HIV-1 vectors (wild-type); type: cell-based
HIV-1 RT = biological target: T1, HIV-1 RT (Human immunodeficiency virus type 1 group M subtype B, UniProt P03366); test: Polymerase (DNA) extension assay with purified recombinant HIV-1 RT; type: biochemical
T1 construct: The expression and purification of HIV-1 RT and the polymerase assays were done as previously described; made in house
Method: FIG. 15. In vitro DNA extension using purified, recombinant HIV-1 RT, with varying amounts of C4′-methyl-2-deoxyadenosinetriphosphate and either (A) a DNA template or (B) and RNA template. […] Bands in the lane containing equimolar amounts of ddATP and dATP correspond to pausing events at the site of incorporation of the nuclosidetriphosphate analog.
The expression and purification of HIV-1 RT and the polymerase assays were done as previously described. For the extension assays, 7.0µl of a […] of synthetic DNA oligonucleotide (5′-[…]-3′ (SEQ ID NO:1); Biosource, CA) was 5′ end-labeled, then annealed to an excess of either a DNA template (5′-[…]-3′ (SEQ ID NO:2)) or an RNA template (5′-[…]-3′ (SEQ ID NO:3)). The A residue is the first nucleotide past the 3′ end of the primer. The annealed template-primer (T/P) was suspended in a final concentration of 25.0 mM Tris (pH 8.0), 75 mM KCl, 8.0 mM MgCl2, 100.0µg/ml BSA, 10.0 mM CHAPS, and 10.0µM each of dCTP, dGTP, and TTP. For the RNA template reactions, the mixture was also supplemented with 1 U/µl of SuperAsin (Ambion). The reaction buffer was aliquoted to individual tubes, then supplemented with a total of 10.0µM dATP and/or adenosine triphosphate analog (as described in the figure legend). The reactions were initiated by the addition of 1.0µg RT and the reaction was incubated at 37° C. for the various indicated time intervals. Reactions were stopped by the addition of EDTA and the reactions precipitated by the addition of isopropyl alcohol. The products were resuspended in formamide gel loading buffer II (Ambion), heated at 70° for 5 min to denature the products, and fractionated on a 15% polyacrylamide sequencing gel.

HIV-1 = type: cell-based
HIV-1 SSGR+215 = type: cell-based
HIV-1 Q151M complex = type: cell-based
HIV-1 AZT-R = type: cell-based
[3] = tested on: HIV-1 viral DNA synthesis (reverse transcriptase); test: Quantitative PCR of viral DNA from infected HOS cells; type: cell-based; conditions: viral DNA collected 2, 4, 6 and 24 hours post-infection
From the text: FIG. 5 is a schematic illustrating the steps of HIV-1 viral DNA synthesis. Viral DNA was isolated from infections over time and assayed by quantitative PCR to determine the amount of viral DNA produced corresponding to various points of DNA synthesis. The regions targeted by our PCR primers and probes are indicated and correspond to: initiation (RU5), minus strand transfer (U3), full length viral DNA (gag), and plus strand transfer (corresponding to second strand synthesis).
The effects of the target compounds on viral DNA production were determined by quantitative PCR. 293 cells were transfected as above and transfections were washed with PBS 8 hours post-transfection and fresh medium added. The transfection wash step was repeated 24 hours post-transfection and fresh medium was added. On the day prior to infection, HOS cells were plated at 2×10^5 cells on to 60 mm plates. Virus-containing supernatants were harvested at 48 hours as above and treated with 20 U/mL of RNase-free DNase I (Roche Applied Science, Indianapolis, Ind.) and 30 U/mL of DNase Turbo (Ambion, Foster City, Calif.). Cells were pre-incubated with the target compounds for 3 h. For each target compound, the treated virus-containing supernatants were concentrated to 7.5 mL, and infections carried out by adding 1.75 mL each to 4 plates of HOS cells. Cells were harvested at 2, 4, 6, and 24 hour intervals and the viral DNA purified using the Qiagen EZ1 DNA tissue kit (Valencia, Calif.). Quantitative PCR (qPCR) was used to determine quantities of DNA corresponding to various steps along the viral DNA synthesis pathway. qPCR primers and probes used were as previously described. (Julias, J. G., Ferris, A. L., Boyer, P. L. and Hughes, S. H. (2001) J. Virol. 75, 6537-46.).
In order to determine that the compounds are targeting HIV-1 reverse transcriptase in the cell based assays, viral DNA was isolated from infections over time and assayed by quantitative PCR to determine the amount of viral DNA produced corresponding to various points of DNA synthesis (FIG. 5). The regions targeted by our PCR primers and probes correspond to: initiation (RU5), minus strand transfer (U3), full length viral DNA (gag), and plus strand transfer (corresponding to the initiation of second strand synthesis).

MT4 cells = conditions: work from Ohuri and others; cited from earlier work

## C#C[C@]1(CO)O[C@@H](n2cnc3c(N)nc(F)nc32)C[C@@H]1O [C4′-ethynl-deoxy-2-fluoro-adenosine, C4′-ethynl-deoxy-2-fluoroadenosine]
HIV-1 M184V variant
  increase in EC50 values, M184V variant over wild-type: 2 fold
MT-4 cells
  cytotoxicity in MT-4 cells: decreased cytotoxicity
[1]
  effectiveness against HIV-1 in MT-4 cells: effective compound against NRTI-resistant HIV-1, including the M184V variant
[1]; listed as C4′-ethynl-deoxy-2-fluoroadenosine
  effectiveness against HIV-1 in MT-4 cells: effective against the wild-type and the M184V reverse transcriptase variant
[2]
  efficacy against WT versus C4′-methyl- and -ethyl-2-deoxyadenosine: slightly improved efficacies against WT

## C[C@]1(COP(=O)(O)OP(=O)(O)OP(=O)(O)O)O[C@@H](n2cnc3c(N)ncnc32)C[C@@H]1O [C4′-methyl-2-dexoyadenosinetriphosphate]
HIV-1 RT; longer time points, extended DNA products observed
  chain termination: does not act as a chain terminator
HIV-1 RT; mixtures of ATP and the triphosphate
  competition with normal nucleosides: able to compete with normal nucleosides during DNA synthesis
HIV-1 RT; short time points, DNA or RNA template
  effect of triphosphate incorporation on DNA synthesis: pausing during DNA synthesis at the point of incorporation

## CCC1(CO)OC(n2cnc3c(N)ncnc32)CC1O (stereo not drawn) [C4′Et-2-dA, 5-(6-Amino-purin-9-yl)-2-ethyl-2-hydroxymethyl-tetrahydro-furan-3-ol]
HOS cells
  selectivity index (CC50 to EC50 ratio): greater than 140
HIV-1; TZM-bl cells
  effectiveness in TZM-bl cells compared with HOS cells: equally as effective
HIV-1 SSGR+215
  inhibition of NRTI resistance mutant SSGR+215: inhibitory
HIV-1 Q151M complex
  inhibition of NRTI resistance mutant Q151M complex: inhibitory
HIV-1 AZT-R
  inhibition of NRTI resistance mutant AZT-R: inhibitory
HIV-1 AZT-R; HOS cells
  increase in the EC50 value, AZT-R variant over wild-type: 3.9 fold
[3]
  inhibition of DNA synthesis compared with AZT: as well as or better than AZT
  late stage viral DNA synthesis (gag and 2nd Strand Transfer): significantly diminished

## C[C@]1(CO)O[C@@H](n2cnc3c(N)ncnc32)C[C@@H]1O [C4′Me-2-dA, C4′-methyl-2-deoxyadenosine]
MT4 cells
  cytotoxicity in MT4 cell killing assays: cytotoxic
HIV-1
  effectiveness in TZM-bl cells compared with HOS cells: equally as effective
HIV-1 SSGR+215
  inhibition of NRTI resistance mutant SSGR+215: inhibitory
HIV-1 Q151M complex
  inhibition of NRTI resistance mutant Q151M complex: inhibitory
HIV-1 AZT-R
  inhibition of NRTI resistance mutant AZT-R: inhibitory
[3]
  inhibition of DNA synthesis compared with AZT: as well as or better than AZT
  late stage viral DNA synthesis (gag and 2nd Strand Transfer): significantly diminished
[2]; read-out: EC50, relative infectivity of HIV-1 vectors
  EC50: 0.048 µM
